System: TNF-α
Assay: Screening of TNF-α inhibitory effect, LPS-stimulated PBMC-derived monocytes (Example 2)
Type: cell-based, human
Settings: 4 uM peptide, 2 hrs, LPS 10 ng/ml; for TNF-α inhibiting effect compared to the group treated with LPS and estrogen: estrogen 20 nM
Procedure: PBMC (peripheral blood mononuclear cells) layer was separated from blood samples (50 ml) collected in healthy subjects using Biocoll Separating Solution (Biochrom AG, Berlin, Germany). The collected PBMC were enriched in RPMI 1640 medium containing 20% human serum for 30 mins, and then transferred to 100-mm polystyeren cell culture plate coated with human serum for incubation for 2 hrs at 37° C., 5% CO^2 incubator. Monocytes were detached from the bottom of the plate using cold PBS, and incubated to reach the number of 1 × 10^5 cell/well in 96-well plate with RPMI 1640 medium (supplemented with penicillinstreptomycin; […], human serum; 20%) over night.
ELISA was performed to find out how the peptides of the PEP RIA series influence TNF-α level. PBMC-derived monocytes were incubated to reach the number of 1 × 10^5 cells per well in a 96-well plate and then treated with LPS (lipopolysaccharide; 10 ng/ml, Sigma) for 2 hours. To the monocytes that were washed three times with PBS, OPTI-MEM culture medium was added to induce cell starvation for an hour, 4 µM of the peptide was taken out and incubated for 2 hours. There were three negative control groups. The first group was not treated with anything. The second group that was treated with estrogen (in this experiment, estradiol was used as a kind of estrogen). The third group was treated with LPS (10 ng/ml) or with LPS (10 ng/ml) as well as estrogen (20 nM). PEP1 that was confirmed to have TNF-α inhibiting activity was used as a positive control to measure TNF-α inhibiting activity. After incubation, TNF-α was measured by following the ELISA kit manual (R&D, Minneapolis, MN, USA). The details of quantification method can be found in Experiment 2.2 of Example 1.
Using the method stated above, Peptides with TNF-α inhibiting effect were screened. PBMC-derived monocytes were stimulated with LPS (10 ng/ml), which is endotoxin, for 2 hours and were induced to starve by adding OPTI-MEM for 1 hour. After that, 4 uM of 179 peptides were treated and incubated for 2 hrs. The amount of TNF-α in the cell culture medium was measured using ELISA, and the peptides with TNF-α inhibiting effect were screened by comparing to the negative and positive controls (FIG. 3 to FIG. 23).

| Substance | TNF-α inhibiting effect compared to the control group treated with only LPS | TNF-α inhibiting effect compared to the group treated with LPS and estrogen |
| --- | --- | --- |
| AEVRQHREARPALLTSRLRFIPKPDG (listed as Homo sapiens) [SEQ ID NO: 54] | showed TNF-α inhibiting effect | showed TNF-α inhibiting effect |
| AEVRQHREARPALLTSRLRFIPKPDGL (listed as Homo sapiens) [SEQ ID NO: 55] | showed TNF-α inhibiting effect | showed TNF-α inhibiting effect |
| AEVRQHREARPALLTSRLRFIPKPDGLR (listed as Homo sapiens) [SEQ ID NO: 56] | showed TNF-α inhibiting effect | showed TNF-α inhibiting effect |
| AEVRQHREARPALLTSRLRFIPKPDGLRP (listed as Homo sapiens) [SEQ ID NO: 57] | showed TNF-α inhibiting effect |  |
| AEVRQHREARPALLTSRLRFIPKPDGLRPI (listed as Homo sapiens) [SEQ ID NO: 58] | showed TNF-α inhibiting effect |  |
| ALLTSR (listed as Homo sapiens) [SEQ ID NO: 142] | showed TNF-α inhibiting effect |  |
| ALLTSRL (listed as Homo sapiens) [SEQ ID NO: 141] | showed TNF-α inhibiting effect |  |
| ALLTSRLRF (listed as Homo sapiens) [SEQ ID NO: 140] | showed TNF-α inhibiting effect | showed TNF-α inhibiting effect |
| ARPA (listed as Homo sapiens) [SEQ ID NO: 119] | showed TNF-α inhibiting effect |  |
| ARPAL (listed as Homo sapiens) [SEQ ID NO: 118] | showed TNF-α inhibiting effect |  |
| ARPALL (listed as Homo sapiens) [SEQ ID NO: 117] | showed TNF-α inhibiting effect | showed TNF-α inhibiting effect |
| ARPALLT (listed as Homo sapiens) [SEQ ID NO: 116] | showed TNF-α inhibiting effect | showed TNF-α inhibiting effect |
| ARPALLTSRLRF (listed as Homo sapiens) [SEQ ID NO: 111] | showed TNF-α inhibiting effect |  |
| ARPALLTSRLRFI (listed as Homo sapiens) [SEQ ID NO: 110] | showed TNF-α inhibiting effect | showed TNF-α inhibiting effect |
| ARPALLTSRLRFIP (listed as Homo sapiens) [SEQ ID NO: 104] | showed TNF-α inhibiting effect |  |
| ARPALLTSRLRFIPK (listed as Homo sapiens) [SEQ ID NO: 91] | showed TNF-α inhibiting effect | showed TNF-α inhibiting effect |
| EAEVRQHREARPALLTSRLRFIPK (listed as Homo sapiens) [SEQ ID NO: 9] | showed TNF-α inhibiting effect | showed TNF-α inhibiting effect |
| EAR [SEQ ID NO: 90] | showed TNF-α inhibiting effect | showed TNF-α inhibiting effect |
| EARP (listed as Homo sapiens) [SEQ ID NO: 89] | showed TNF-α inhibiting effect | showed TNF-α inhibiting effect |

| Substance | TNF-α inhibiting effect compared to the control group treated with only LPS | TNF-α inhibiting effect compared to the group treated with LPS and estrogen |
| --- | --- | --- |
| EARPA (listed as Homo sapiens) [SEQ ID NO: 88] | showed TNF-α inhibiting effect | showed TNF-α inhibiting effect |
| EARPALLTS (listed as Homo sapiens) [SEQ ID NO: 84] | showed TNF-α inhibiting effect |  |
| EARPALLTSR (listed as Homo sapiens) [SEQ ID NO: 83] | showed TNF-α inhibiting effect | showed TNF-α inhibiting effect |
| EARPALLTSRL (listed as Homo sapiens) [SEQ ID NO: 82] | showed TNF-α inhibiting effect | showed TNF-α inhibiting effect |
| EARPALLTSRLR (listed as Homo sapiens) [SEQ ID NO: 81] | showed TNF-α inhibiting effect | showed TNF-α inhibiting effect |
| EARPALLTSRLRF (listed as Homo sapiens) [SEQ ID NO: 80] | showed TNF-α inhibiting effect | showed TNF-α inhibiting effect |
| EARPALLTSRLRFIPKP (listed as Homo sapiens) [SEQ ID NO: 65] | showed TNF-α inhibiting effect | showed TNF-α inhibiting effect |
| EARPALLTSRLRFIPKPD (listed as Homo sapiens) [SEQ ID NO: 66] | showed TNF-α inhibiting effect |  |
| EARPALLTSRLRFIPKPDGLRPI (listed as Homo sapiens) [SEQ ID NO: 70] | showed TNF-α inhibiting effect | showed TNF-α inhibiting effect |
| EARPALLTSRLRFIPKPDGLRPIV (listed as Homo sapiens) [SEQ ID NO: 71] | showed TNF-α inhibiting effect | showed TNF-α inhibiting effect |
| EARPALLTSRLRFIPKPDGLRPIVN (listed as Homo sapiens) [SEQ ID NO: 72] | showed TNF-α inhibiting effect | showed TNF-α inhibiting effect |
| EARPALLTSRLRFIPKPDGLRPIVNMD (listed as Homo sapiens) [SEQ ID NO: 74] | showed TNF-α inhibiting effect |  |
| ELSEAEVRQHREARPALLTSRLRFIPK (listed as Homo sapiens) [SEQ ID NO: 12] | showed TNF-α inhibiting effect |  |
| EVRQHREARPALLTSRLRFIPKPD (listed as Homo sapiens) [SEQ ID NO: 42] | showed TNF-α inhibiting effect | showed TNF-α inhibiting effect |
| EVRQHREARPALLTSRLRFIPKPDG (listed as Homo sapiens) [SEQ ID NO: 43] | showed TNF-α inhibiting effect | showed TNF-α inhibiting effect |
| EVRQHREARPALLTSRLRFIPKPDGL (listed as Homo sapiens) [SEQ ID NO: 44] | showed TNF-α inhibiting effect | showed TNF-α inhibiting effect |
| EVRQHREARPALLTSRLRFIPKPDGLR (listed as Homo sapiens) [SEQ ID NO: 45] | showed TNF-α inhibiting effect |  |
| EVRQHREARPALLTSRLRFIPKPDGLRP (listed as Homo sapiens) [SEQ ID NO: 46] | showed TNF-α inhibiting effect |  |

From US20230293644A1, “ANTI-INFLAMMATORY PEPTIDES AND COMPOSITION COMPRISING THE SAME” (Gemvax & KAEL Co., Ltd., priority 2012, published 2023)
